Seven compounds from patent US12391648B2, “Pyridyloxy thioester derivative and preparation method therefor, herbicidal composition, and application” (Qingdao Kingagroot Chemical Compound Co., Ltd., priority 2018, dated 2025) can be followed below.

The first test deals with Abutilon theophrasti. As to the kind of experiment: Post-emergence test experiment (Table 3, 1000 g/ha). The test is classed as in vivo. To be noted: post-emergence spray, after 3 weeks, fresh weight inhibition. The method, boiled down:
(§1)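 Activity graded levels 0-5 by fresh-weight inhibition (level 5 above 85%, level 0 below 5%), assessed 3 weeks after treatment. Plants grown in greenhouse pots were sprayed post-emergence at 2-3 leaves using acetone/tween-80 solutions with methyl oleate synergist (1.5 L/ha).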
Regarding `CC(Oc1nc(F)c(Cl)c(N)c1Cl)C(=O)SC(F)(F)C(F)(F)F` (stereo not drawn) [Compound 76], the “Activity level (growth inhibition rate) Abutilon theophrasti” value was 5 (Level 5: the growth inhibition rate is greater than 85%).

Take `CC(Oc1nc(F)c(Cl)c(N)c1Cl)C(=O)SCC(Cl)=C(Cl)Cl` (stereo not drawn) [Compound 92]: the “Activity level (growth inhibition rate) Abutilon theophrasti” value is 5 (Level 5: the growth inhibition rate is greater than 85%).

`CC(Oc1nc(F)c(Cl)c(N)c1Cl)C(=O)Sc1ccncc1` (stereo not drawn) [Compound 116]: the “Activity level (growth inhibition rate) Abutilon theophrasti” value is on record as 5 (Level 5: the growth inhibition rate is greater than 85%).

Regarding `CC(Oc1nc(F)c(Cl)c(N)c1Cl)C(=O)SC[N+](=O)[O-]` (stereo not drawn) [Compound 156], the “Activity level (growth inhibition rate) Abutilon theophrasti” value is 5 (Level 5: the growth inhibition rate is greater than 85%).

Regarding `CC(Oc1nc(F)c(Cl)c(N)c1Cl)C(=O)Sc1cccc(N(C)C)c1` (stereo not drawn) [Compound 109], the “Activity level (growth inhibition rate) Abutilon theophrasti” value is given as 5 (Level 5: the growth inhibition rate is greater than 85%).

On to `CSC(=O)C(C)Oc1nc(C(F)(F)F)c(Cl)c(N)c1Cl` (stereo not drawn) [Compound 6], for which the “Activity level (growth inhibition rate) Abutilon theophrasti” value is listed as 5 (Level 5: the growth inhibition rate is greater than 85%).

Turning to `CC(C)=NOCCSC(=O)C(C)Oc1nc(C)c(Cl)c(N)c1Cl` (stereo not drawn) [Compound 5], the “Activity level (growth inhibition rate) Abutilon theophrasti” value is recorded as 5 (Level 5: the growth inhibition rate is greater than 85%).

Another test deals with Digitaria sanguinalis. Described as above. The test is classed as in vivo. To be noted: post-emergence spray, after 3 weeks, fresh weight inhibition. The method, boiled down: as §1
For `CC(Oc1nc(F)c(Cl)c(N)c1Cl)C(=O)SC(F)(F)C(F)(F)F` (stereo not drawn) [Compound 76], the “Activity level (growth inhibition rate) Digitaria sanguinalis” value is recorded as 5 (Level 5: the growth inhibition rate is greater than 85%).

As for `CC(Oc1nc(F)c(Cl)c(N)c1Cl)C(=O)SCC(Cl)=C(Cl)Cl` (stereo not drawn) [Compound 92], the “Activity level (growth inhibition rate) Digitaria sanguinalis” value is on record as 5 (Level 5: the growth inhibition rate is greater than 85%).

For the compound `CC(Oc1nc(F)c(Cl)c(N)c1Cl)C(=O)Sc1ccncc1` (stereo not drawn) [Compound 116], the “Activity level (growth inhibition rate) Digitaria sanguinalis” value is 5 (Level 5: the growth inhibition rate is greater than 85%).

As for `CC(Oc1nc(F)c(Cl)c(N)c1Cl)C(=O)SC[N+](=O)[O-]` (stereo not drawn) [Compound 156], the “Activity level (growth inhibition rate) Digitaria sanguinalis” value is 5 (Level 5: the growth inhibition rate is greater than 85%).

With `CC(Oc1nc(F)c(Cl)c(N)c1Cl)C(=O)Sc1cccc(N(C)C)c1` (stereo not drawn) [Compound 109], the “Activity level (growth inhibition rate) Digitaria sanguinalis” value is given as 5 (Level 5: the growth inhibition rate is greater than 85%).

Take `CSC(=O)C(C)Oc1nc(C(F)(F)F)c(Cl)c(N)c1Cl` (stereo not drawn) [Compound 6]: the “Activity level (growth inhibition rate) Digitaria sanguinalis” value is 5 (Level 5: the growth inhibition rate is greater than 85%).

`CC(C)=NOCCSC(=O)C(C)Oc1nc(C)c(Cl)c(N)c1Cl` (stereo not drawn) [Compound 5]: the “Activity level (growth inhibition rate) Digitaria sanguinalis” value is 5 (Level 5: the growth inhibition rate is greater than 85%).

The test system of a further test is Galium spurium. Described as above. Format: in vivo. As to conditions: post-emergence spray, after 3 weeks, fresh weight inhibition. In short, it runs like this: as §1
In the case of `CC(Oc1nc(F)c(Cl)c(N)c1Cl)C(=O)SC(F)(F)C(F)(F)F` (stereo not drawn) [Compound 76], the “Activity level (growth inhibition rate) Galium spurium” value is recorded as 5 (Level 5: the growth inhibition rate is greater than 85%).

Take `CC(Oc1nc(F)c(Cl)c(N)c1Cl)C(=O)SCC(Cl)=C(Cl)Cl` (stereo not drawn) [Compound 92]: the “Activity level (growth inhibition rate) Galium spurium” value is 5 (Level 5: the growth inhibition rate is greater than 85%).

Regarding `CC(Oc1nc(F)c(Cl)c(N)c1Cl)C(=O)Sc1ccncc1` (stereo not drawn) [Compound 116], the “Activity level (growth inhibition rate) Galium spurium” value was 5 (Level 5: the growth inhibition rate is greater than 85%).

Take `CC(Oc1nc(F)c(Cl)c(N)c1Cl)C(=O)SC[N+](=O)[O-]` (stereo not drawn) [Compound 156]: the “Activity level (growth inhibition rate) Galium spurium” value was 5 (Level 5: the growth inhibition rate is greater than 85%).

For `CC(Oc1nc(F)c(Cl)c(N)c1Cl)C(=O)Sc1cccc(N(C)C)c1` (stereo not drawn) [Compound 109], the “Activity level (growth inhibition rate) Galium spurium” value is listed as 5 (Level 5: the growth inhibition rate is greater than 85%).

For `CSC(=O)C(C)Oc1nc(C(F)(F)F)c(Cl)c(N)c1Cl` (stereo not drawn) [Compound 6], the “Activity level (growth inhibition rate) Galium spurium” value is given as 5 (Level 5: the growth inhibition rate is greater than 85%).

For `CC(C)=NOCCSC(=O)C(C)Oc1nc(C)c(Cl)c(N)c1Cl` (stereo not drawn) [Compound 5], the “Activity level (growth inhibition rate) Galium spurium” value was 5 (Level 5: the growth inhibition rate is greater than 85%).

The next test has as its system Leptochloa chinensis. The description is as above. As to conditions: post-emergence spray, after 3 weeks, fresh weight inhibition. Format: in vivo. In short, it runs like this:
as §1
On to `CC(Oc1nc(F)c(Cl)c(N)c1Cl)C(=O)SC(F)(F)C(F)(F)F` (stereo not drawn) [Compound 76], for which the “Activity level (growth inhibition rate) Leptochloa chinensis” value is listed as 5 (Level 5: the growth inhibition rate is greater than 85%).

Turning to `CC(Oc1nc(F)c(Cl)c(N)c1Cl)C(=O)SCC(Cl)=C(Cl)Cl` (stereo not drawn) [Compound 92], the “Activity level (growth inhibition rate) Leptochloa chinensis” value is 5 (Level 5: the growth inhibition rate is greater than 85%).

As to `CC(Oc1nc(F)c(Cl)c(N)c1Cl)C(=O)Sc1ccncc1` (stereo not drawn) [Compound 116], the “Activity level (growth inhibition rate) Leptochloa chinensis” value was 5 (Level 5: the growth inhibition rate is greater than 85%).

`CC(Oc1nc(F)c(Cl)c(N)c1Cl)C(=O)SC[N+](=O)[O-]` (stereo not drawn) [Compound 156]: the “Activity level (growth inhibition rate) Leptochloa chinensis” value is 5 (Level 5: the growth inhibition rate is greater than 85%).

With `CC(Oc1nc(F)c(Cl)c(N)c1Cl)C(=O)Sc1cccc(N(C)C)c1` (stereo not drawn) [Compound 109], the “Activity level (growth inhibition rate) Leptochloa chinensis” value is 5 (Level 5: the growth inhibition rate is greater than 85%).

For `CSC(=O)C(C)Oc1nc(C(F)(F)F)c(Cl)c(N)c1Cl` (stereo not drawn) [Compound 6], the “Activity level (growth inhibition rate) Leptochloa chinensis” value is recorded as 5 (Level 5: the growth inhibition rate is greater than 85%).

Turning to `CC(C)=NOCCSC(=O)C(C)Oc1nc(C)c(Cl)c(N)c1Cl` (stereo not drawn) [Compound 5], the “Activity level (growth inhibition rate) Leptochloa chinensis” value is given as 5 (Level 5: the growth inhibition rate is greater than 85%).

In another test the test system is Monochoria vaginalis. The description is as above. Format: in vivo. To be noted: post-emergence spray, after 3 weeks, fresh weight inhibition. In short, it runs like this: as §1
On to `CC(Oc1nc(F)c(Cl)c(N)c1Cl)C(=O)SC(F)(F)C(F)(F)F` (stereo not drawn) [Compound 76], for which the “Activity level (growth inhibition rate) Monochoria Vaginalis” value is recorded as 5 (Level 5: the growth inhibition rate is greater than 85%).

With `CC(Oc1nc(F)c(Cl)c(N)c1Cl)C(=O)SCC(Cl)=C(Cl)Cl` (stereo not drawn) [Compound 92], the “Activity level (growth inhibition rate) Monochoria Vaginalis” value is given as 5 (Level 5: the growth inhibition rate is greater than 85%).

For the compound `CC(Oc1nc(F)c(Cl)c(N)c1Cl)C(=O)Sc1ccncc1` (stereo not drawn) [Compound 116], the “Activity level (growth inhibition rate) Monochoria Vaginalis” value is on record as 5 (Level 5: the growth inhibition rate is greater than 85%).

Consider `CC(Oc1nc(F)c(Cl)c(N)c1Cl)C(=O)SC[N+](=O)[O-]` (stereo not drawn) [Compound 156], for which the “Activity level (growth inhibition rate) Monochoria Vaginalis” value is listed as 5 (Level 5: the growth inhibition rate is greater than 85%).

Regarding `CC(Oc1nc(F)c(Cl)c(N)c1Cl)C(=O)Sc1cccc(N(C)C)c1` (stereo not drawn) [Compound 109], the “Activity level (growth inhibition rate) Monochoria Vaginalis” value is 5 (Level 5: the growth inhibition rate is greater than 85%).

For the compound `CSC(=O)C(C)Oc1nc(C(F)(F)F)c(Cl)c(N)c1Cl` (stereo not drawn) [Compound 6], the “Activity level (growth inhibition rate) Monochoria Vaginalis” value is 5 (Level 5: the growth inhibition rate is greater than 85%).

For `CC(C)=NOCCSC(=O)C(C)Oc1nc(C)c(Cl)c(N)c1Cl` (stereo not drawn) [Compound 5], the “Activity level (growth inhibition rate) Monochoria Vaginalis” value is recorded as 5 (Level 5: the growth inhibition rate is greater than 85%).

The test system of another test is Setaria viridis. Described as above. The test is classed as in vivo. As to conditions: post-emergence spray, after 3 weeks, fresh weight inhibition. In short, it runs like this: as §1
Consider `CC(Oc1nc(F)c(Cl)c(N)c1Cl)C(=O)SC(F)(F)C(F)(F)F` (stereo not drawn) [Compound 76], for which the “Activity level (growth inhibition rate) Setaria viridis” value was 5 (Level 5: the growth inhibition rate is greater than 85%).

With `CC(Oc1nc(F)c(Cl)c(N)c1Cl)C(=O)SCC(Cl)=C(Cl)Cl` (stereo not drawn) [Compound 92], the “Activity level (growth inhibition rate) Setaria viridis” value is 5 (Level 5: the growth inhibition rate is greater than 85%).

Turning to `CC(Oc1nc(F)c(Cl)c(N)c1Cl)C(=O)Sc1ccncc1` (stereo not drawn) [Compound 116], the “Activity level (growth inhibition rate) Setaria viridis” value is 5 (Level 5: the growth inhibition rate is greater than 85%).

As to `CC(Oc1nc(F)c(Cl)c(N)c1Cl)C(=O)SC[N+](=O)[O-]` (stereo not drawn) [Compound 156], the “Activity level (growth inhibition rate) Setaria viridis” value is reported as 5 (Level 5: the growth inhibition rate is greater than 85%).

For the compound `CC(Oc1nc(F)c(Cl)c(N)c1Cl)C(=O)Sc1cccc(N(C)C)c1` (stereo not drawn) [Compound 109], the “Activity level (growth inhibition rate) Setaria viridis” value is 5 (Level 5: the growth inhibition rate is greater than 85%).

Consider `CSC(=O)C(C)Oc1nc(C(F)(F)F)c(Cl)c(N)c1Cl` (stereo not drawn) [Compound 6], for which the “Activity level (growth inhibition rate) Setaria viridis” value was 5 (Level 5: the growth inhibition rate is greater than 85%).

Consider `CC(C)=NOCCSC(=O)C(C)Oc1nc(C)c(Cl)c(N)c1Cl` (stereo not drawn) [Compound 5], for which the “Activity level (growth inhibition rate) Setaria viridis” value is 5 (Level 5: the growth inhibition rate is greater than 85%).
